Measurements from patent publication US12642791B2, “Inhibitors of lysyl oxidases” (UNIVERSITY OF SOUTH CAROLINA, priority 2021, dated 2026).

How the values were obtained:
[1] = tested on: HFF cells; assay: Fibrosis assay (TGF-beta induced, alpha-SMA and fibronectin staining); type: cell-based, human; details: 10 uM compound, 1 hour pretreatment, TGF-β 48 hours
Method: FIG. 40. […] 24 hours serum-starved HFF cells were pretreated with inhibitors 1 hours. Then, fibrosis was induced by […] of TGF-β for 48 hours in HFF cells. ALK5 (10 μM) inhibitor is used as a negative control. LOX inhibitors 6232, 6403 and 6415 were used at 10 uM concentration. HFF cells were stained with alpha-SMA and fibronectin primary antibodies. Nucleus of the cells was labeled with DAPI.
Human foreskin fibroblasts (HFF), see Li, M. et al. Icaritin inhibits skin fibrosis through regulating AMPK and Wnt/β-catenin signaling. Cell Biochemistry and Biophysics 79, 231-238 (2021), cells were seeded into μ-Slide 8-well glass bottom chambers (Ibidi, Germany). Next day, media of the cells were replaced with 0.5% FBS contain media and incubated with 24 hours. Then, cells were pretreated either with ALK5 inhibitor (Sellekchem, USA) or LOX inhibitors for 1 hour and cells were incubated with 10 ng/ml of TGF-beta (R&D Biosystems, USA) for 48 hours. Staining of the markers followed the same procedure described in the Immunofluorescence section above.

[2] = tested on: cellular lysyl oxidase activity, ACHN; assay: Cell-based LOX activity in kidney cancer cell line; design: species or system human; details: uM range
Method: (§1) FIG. 38. Dose dependent inhibition of cellular LOX activity and growth inhibition in 3D upon treatment with 6232 and its analogs, 6403 and 6415.in ACHN cancer cell line. Inhibition of cell-based LOX activity in ACHN (A) and growth inhibition in collagen:matrigel (1:1) culture (B) cancer cell lines upon treatment with LOX inhibitors 6232, 6403 and 6415 (uM range). BAPN is used as a positive control (mM range) in 3D cell viability assay. Growth inhibition was measured by using 3D Cell Titer Glo kit.
(§2) For cell-based lysyl oxidase activity, fluorometric Lysly Oxidase Activity Assay Kit (Abcam, USA) was used according to manufacturer's instructions. Briefly, after the treatment, 50 μl of supernatant from each well was incubated with reagent mix and fluorescence measured in multimode-reader at Ex/Em=540/590 nm wavelength.

[3] = tested on: cellular LOX activity, Caki-1; assay: Cell-based LOX activity in kidney cancer cell line; design: species or system human
Method: FIG. 39. Inhibition of cellular LOX activity in pancreatic and kidney cancer cell lines. Inhibition of cellular LOX activity upon the treatment with BAPN, 6232, 6403 and 6415 in kidney cell line Caki-1 (A) and pancreatic cancer cell lines Mia-Paca-2 (B) and PANC1 (C).
as §2

[4] = tested on: MDA-MB-231 cells embedded in collagen I; assay: ECM crosslinking by collagen and fibronectin immunofluorescence staining; type: cell-based, human
Method: FIG. 31. […] A. Inhibition of LOX activity in MDA-MB-231 cells treated with 5 μM of the LOX inhibitors. B. Doxorubicin sensitization with 6232 and its analogs, 6403 and 6415, in 3D collagen-I culture. C. Collagen and fibronectin staining of vehicle or 6232 or 6403 or 6415-treated MDA-MB-231 cells embedded in collagen I. BAPN is used as a positive control.
Immunofluorescence staining of cells was done in μ-Slide 8-well glass bottom chambers (Ibidi, Germany). Cells were fixed with 4% paraformaldehyde for 20 min, permeabilized with 0.5% Triton X-100 for 10 min and blocked in 5% BSA-PBS. Samples were incubated with primary (Collagen I, Fibronectin, F-actin, a-SMA) and secondary Alexa Fluor 647 or 488-labeled antibodies for 1.5 hours at room temperature. Cells were also counterstained with DAPI for 5 min. Images were acquired using ZEN 2012 SP5 (Black) LSM 700 (Carl Zeiss, DE).

[5] = tested on: MDA-MB-231 cells; assay: Doxorubicin chemosensitization in 3D collagen I culture; type: cell-based, human; details: collagen I-embedded cells, combination with doxorubicin
Method: (§3) Collagen solution was prepared at a concentration of 0.5-1 mg/ml from the rat tail collagen I (Corning, USA) with a neutralization step including the addition of 1N NaOH solution. Cells were trypsinazed and resuspended in collagen:matrigel mix (1:1). 8×10^3 cells were seeded into 96-well or μ-Slide 8-well glass bottom chambers. After 1 hour of incubation at room temperature, media was added on top of the solidified collagen:matrigel mix. Drug treatments were done 12 hours after cell seeding.
(§4) Cells were embedded in type I collagen:matrigel mix as described above. Cells were grown in the presence of doxorubicin or LOX inhibitors alone or combination of LOX inhibitors with doxorubicin for 48 hours. After the treatment, cell viability was measured by using 3D Cell Titer Glo (Promega, USA) kit.

[6] = tested on: HCC1143; assay: as above; type: cell-based, human; details: collagen I-embedded cells, combination with doxorubicin
Method: as §3, §4

[7] = tested on: ACHN kidney cancer cell line; assay: Growth inhibition in 3D collagen:matrigel culture (3D Cell Titer Glo); type: cell-based, human; details: collagen:matrigel (1:1), uM range
Method: as §1, §3

[8] = biological target: T1, LOXL2 (Homo sapiens, UniProt Q9Y4K0); assay: Lysyl oxidase activity assay with recombinant LOXL2 protein; type: biochemical; design: purchased Abcam, USA; details: for inhibition of recombinant LOXL2: 10 μM compound
T1 sequence (Q9Y4K0 26-774): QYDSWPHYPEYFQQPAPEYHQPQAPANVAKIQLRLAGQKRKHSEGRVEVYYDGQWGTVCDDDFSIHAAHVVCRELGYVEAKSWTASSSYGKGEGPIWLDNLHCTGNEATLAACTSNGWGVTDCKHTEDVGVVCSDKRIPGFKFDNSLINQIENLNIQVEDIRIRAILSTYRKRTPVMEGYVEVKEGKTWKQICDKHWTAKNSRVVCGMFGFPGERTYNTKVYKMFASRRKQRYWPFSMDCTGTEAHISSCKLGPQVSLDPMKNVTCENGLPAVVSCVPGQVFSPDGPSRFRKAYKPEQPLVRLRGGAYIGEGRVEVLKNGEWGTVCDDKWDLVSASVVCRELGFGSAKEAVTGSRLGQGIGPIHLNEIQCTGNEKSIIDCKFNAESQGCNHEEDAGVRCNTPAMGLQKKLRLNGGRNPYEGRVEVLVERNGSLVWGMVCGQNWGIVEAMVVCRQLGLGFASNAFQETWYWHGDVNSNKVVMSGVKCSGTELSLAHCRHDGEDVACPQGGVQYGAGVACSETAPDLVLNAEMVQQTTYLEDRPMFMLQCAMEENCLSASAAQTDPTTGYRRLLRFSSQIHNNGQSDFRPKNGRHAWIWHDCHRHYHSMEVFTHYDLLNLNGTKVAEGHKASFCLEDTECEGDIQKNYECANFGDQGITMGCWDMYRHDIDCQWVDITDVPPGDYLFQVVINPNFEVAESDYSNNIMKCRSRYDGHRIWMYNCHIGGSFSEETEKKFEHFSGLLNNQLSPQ
Method: For in vitro lysyl oxidase activity (for recombinant proteins), Lysyl Oxidase Activity kit (Biovision, USA) was used according to manufacturer's instructions. Briefly, 1 μg of LOX (Novus, USA), 0.2 μg of LOXL1 (Abcam, USA) and 0.1 μg of LOXL2 (Abcam, USA) were incubated with the reagent mix in the presence of inhibitors or vehicle. Lysyl oxidase activity of the wells was measured in multimode reader (every 30 sec, total 2.5 hours) in […] mode.

SMILES	TGF-β-induced fibrosis (alpha-SMA, fibronectin staining) [1]	cellular lysyl oxidase activity inhibition [2]	cellular LOX activity [3]	ECM crosslinking (collagen and fibronectin staining) [4]	doxorubicin sensitization [5]	doxorubicin sensitization [6]	cell viability in 3D culture [7]	inhibition of recombinant LOXL2 [8]	inhibition of recombinant LOXL2 activity ([8]; 5 and 10 uM)
CC(=O)Nc1ccc(Nc2nc(-c3sc(N)nc3C)cs2)cc1 [compound 6403, N-[4-[[4-(2-amino-4-methyl-thiazol-5-yl)thiazol-2-yl]amino]phenyl]acetamide]	inhibited the TGF-β-induced fibrosis	dose dependent cellular lysyl oxidase activity inhibition	inhibited cellular LOX activity	decrease in ECM crosslinking	led to doxorubicin sensitization	led to doxorubicin sensitization	decrease in cell viability in 3D culture		
Cc1nc(N)sc1-c1csc(N(C)c2ccc(O)cc2)n1 [compound 6415, 4-[[4-(2-amino-4-methyl-thiazol-5-yl)thiazol-2-yl]-methyl-amino]phenol]	inhibited the TGF-β-induced fibrosis	dose dependent cellular lysyl oxidase activity inhibition	inhibited cellular LOX activity	decrease in ECM crosslinking	led to doxorubicin sensitization	led to doxorubicin sensitization	decrease in cell viability in 3D culture	inhibits both LOX and LOXL2 recombinant proteins	inhibited the activity of LOX and LOXL2 recombinant proteins
Cc1nc(N)sc1-c1csc(Nc2ccc([N+](=O)[O-])cc2)n1 [compound 6232, 4-methyl-5-[2-(4-nitroanilino)thiazol-4-yl]thiazol-2-amine]	inhibited the TGF-β-induced fibrosis	dose dependent cellular lysyl oxidase activity inhibition	inhibited cellular LOX activity	decrease in ECM crosslinking			decrease in cell viability in 3D culture	moderately inhibit	
